Measurements taken from ChEMBL document CHEMBL1201862, “PubChem BioAssay data set” (2004).
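Exposure lasted 48 hours, with cells grown in 96-well plates and compounds tested at five concentrations. The concentration for 50% growth inhibition is given as GI50.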 The source made the active and inactive calls. Cut-off read from the data, not from the text of the source: active = GI50 up to about 1.1 µM and inactive = higher.

How the values were obtained:
Assay in all cases: DTP human tumour cell line panel, 48 h
SF-539 = test system: SF-539
RPMI-8226 = test system: RPMI-8226
NCI/ADR-RES = test system: NCI/ADR-RES
SK-MEL-28 = test system: SK-MEL-28
MCF7 = test system: MCF7
DMS-114 = test system: DMS-114
HT-29 = test system: HT-29
SNB-78 = test system: SNB-78
OVCAR-4 = test system: OVCAR-4
DMS-273 = test system: DMS-273
IGROV-1 = test system: IGROV-1
OVCAR-5 = test system: OVCAR-5
DU-145 = test system: DU-145
SF-268 = test system: SF-268
NCI-H460 = test system: NCI-H460
HL-60 = test system: HL-60
HCC 2998 = test system: HCC 2998
HOP-92 = test system: HOP-92
MDA-N = test system: MDA-N
KM-20L2 = test system: KM-20L2
COLO 205 = test system: COLO 205
MOLT-4 = test system: MOLT-4
LOX IMVI = test system: LOX IMVI
PC-3 = test system: PC-3
Hs-578T = test system: Hs-578T
SNB-75 = test system: SNB-75
SW-620 = test system: SW-620
A498 = test system: A498
KM12 = test system: KM12
SR = test system: SR
K562 = test system: K562
NCI-H23 = test system: NCI-H23
Malme-3M = test system: Malme-3M
UACC-62 = test system: UACC-62
OVCAR-8 = test system: OVCAR-8
ACHN = test system: ACHN
CAKI-1 = test system: CAKI-1
DLD-1 = test system: DLD-1
A549 = test system: A549
M14 = test system: M14
T47D = test system: T47D
SK-MEL-2 = test system: SK-MEL-2
SNB-19 = test system: SNB-19
U-251 = test system: U-251
MDA-MB-435 = test system: MDA-MB-435
SF-295 = test system: SF-295
UO-31 = test system: UO-31
LXFL 529 = test system: LXFL 529
NCI-H522 = test system: NCI-H522
SK-OV-3 = test system: SK-OV-3
786-0 = test system: 786-0
HCT-116 = test system: HCT-116
HOP-18 = test system: HOP-18
CCRF-CEM = test system: CCRF-CEM
TK-10 = test system: TK-10
EKVX = test system: EKVX
OVCAR-3 = test system: OVCAR-3
BT-549 = test system: BT-549
SN12C = test system: SN12C
XF498 = test system: XF498
NCI-H226 = test system: NCI-H226
UACC-257 = test system: UACC-257
HCT-15 = test system: HCT-15
RXF 393 = test system: RXF 393
M19-MEL = test system: M19-MEL
HOP-62 = test system: HOP-62
SK-MEL-5 = test system: SK-MEL-5
RXF 631 = test system: RXF 631

Clc1cccc(N2CCN(CCN3CCc4c([nH]c5ccccc45)C3c3cccnc3)CC2)c1 (stereo not drawn)
GI50 (SF-539): 33.5 µM (inactive) | GI50 (RPMI-8226): 30.6 µM (inactive) | GI50 (NCI/ADR-RES): > 100 µM (inactive) | GI50 (SK-MEL-28): > 100 µM (inactive) | GI50 (MCF7): 19.2 µM (inactive) | GI50 (DMS-114): 73.5 µM (inactive) | GI50 (HT-29): 37 µM (inactive) | GI50 (SNB-78): > 100 µM (inactive) | GI50 (OVCAR-4): 31.4 µM (inactive) | GI50 (DMS-273): 37.9 µM (inactive) | GI50 (IGROV-1): 9.59 µM (inactive) | GI50 (OVCAR-5): > 57.3 µM (inactive) | GI50 (DU-145): > 31.6 µM (inactive) | GI50 (SF-268): > 100 µM (inactive) | GI50 (NCI-H460): 8.75 µM (inactive) | GI50 (HL-60): 26.3 µM (inactive) | GI50 (HCC 2998): 22.5 µM (inactive) | GI50 (HOP-92): > 52.5 µM (inactive) | GI50 (MDA-N): > 100 µM (inactive) | GI50 (KM-20L2): 24 µM (inactive) | GI50 (COLO 205): > 33.7 µM (inactive) | GI50 (MOLT-4): > 71.6 µM (inactive) | GI50 (LOX IMVI): > 50.2 µM (inactive) | GI50 (PC-3): > 86.7 µM (inactive) | GI50 (Hs-578T): > 68.9 µM (inactive) | GI50 (SNB-75): 18.8 µM (inactive) | GI50 (SW-620): > 64.6 µM (inactive) | GI50 (A498): > 100 µM (inactive) | GI50 (KM12): 8.05 µM (inactive) | GI50 (SR): 25.7 µM (inactive) | GI50 (K562): 10.9 µM (inactive) | GI50 (NCI-H23): 78.5 µM (inactive) | GI50 (Malme-3M): > 66.8 µM (inactive) | GI50 (UACC-62): > 70 µM (inactive) | GI50 (OVCAR-8): > 61.9 µM (inactive) | GI50 (ACHN): > 100 µM (inactive) | GI50 (CAKI-1): > 100 µM (inactive) | GI50 (DLD-1): 39.4 µM (inactive) | GI50 (A549): > 94.6 µM (inactive) | GI50 (M14): > 79.4 µM (inactive) | GI50 (T47D): 9.38 µM (inactive) | GI50 (SK-MEL-2): 61 µM (inactive) | GI50 (SNB-19): > 100 µM (inactive) | GI50 (U-251): 64.4 µM (inactive) | GI50 (MDA-MB-435): > 100 µM (inactive) | GI50 (SF-295): 69 µM (inactive) | GI50 (UO-31): > 100 µM (inactive) | GI50 (LXFL 529): 63.7 µM (inactive) | GI50 (NCI-H522): 65.5 µM (inactive) | GI50 (SK-OV-3): > 100 µM (inactive) | GI50 (786-0): 29.8 µM (inactive) | GI50 (HCT-116): 31.8 µM (inactive) | GI50 (HOP-18): > 100 µM (inactive) | GI50 (CCRF-CEM): > 40.4 µM (inactive) | GI50 (TK-10): > 100 µM (inactive) | GI50 (EKVX): 14.5 µM (inactive) | GI50 (OVCAR-3): 58.5 µM (inactive) | GI50 (BT-549): > 100 µM (inactive) | GI50 (SN12C): 43.6 µM (inactive) | GI50 (XF498): 40.3 µM (inactive) | GI50 (NCI-H226): > 37.3 µM (inactive) | GI50 (UACC-257): > 77.4 µM (inactive) | GI50 (HCT-15): 8.81 µM | GI50 (RXF 393): > 100 µM (inactive) | GI50 (M19-MEL): > 100 µM (inactive) | GI50 (HOP-62): > 45.6 µM (inactive) | GI50 (SK-MEL-5): 97.7 µM (inactive)

C=C(C#N)C1OCC2OC(C)(C)OC21 (stereo not drawn)
GI50 (SF-539): 16.1 µM (inactive) | GI50 (SK-MEL-28): 21.1 µM (inactive) | GI50 (DMS-114): 22.7 µM (inactive) | GI50 (HT-29): 34.9 µM (inactive) | GI50 (RXF 631): 20.9 µM (inactive) | GI50 (SNB-78): 19.7 µM (inactive) | GI50 (OVCAR-4): 19.4 µM (inactive) | GI50 (DMS-273): 19.1 µM (inactive) | GI50 (IGROV-1): 37.4 µM (inactive) | GI50 (OVCAR-5): 19.8 µM (inactive) | GI50 (SF-268): 23.8 µM (inactive) | GI50 (NCI-H460): 24.9 µM (inactive) | GI50 (HL-60): 18.2 µM (inactive) | GI50 (HCC 2998): 26.7 µM (inactive) | GI50 (HOP-92): 24 µM (inactive) | GI50 (COLO 205): 15.4 µM (inactive) | GI50 (MOLT-4): 15.7 µM (inactive) | GI50 (LOX IMVI): 15 µM (inactive) | GI50 (SNB-75): 20.1 µM (inactive) | GI50 (SW-620): 19 µM (inactive) | GI50 (A498): 22.2 µM (inactive) | GI50 (KM12): 33.3 µM (inactive) | GI50 (K562): 28.1 µM (inactive) | GI50 (NCI-H23): 18.6 µM (inactive) | GI50 (UACC-62): 17.3 µM (inactive) | GI50 (OVCAR-8): 21.5 µM (inactive) | GI50 (ACHN): 20.7 µM (inactive) | GI50 (CAKI-1): 23.4 µM (inactive) | GI50 (DLD-1): 17.1 µM (inactive) | GI50 (A549): 36 µM (inactive) | GI50 (M14): 15.7 µM (inactive) | GI50 (SK-MEL-2): 27.4 µM (inactive) | GI50 (SNB-19): > 100 µM (inactive) | GI50 (U-251): 32.7 µM (inactive) | GI50 (SF-295): 45.9 µM (inactive) | GI50 (UO-31): 40.5 µM (inactive) | GI50 (SK-OV-3): 50.6 µM (inactive) | GI50 (786-0): 20.2 µM (inactive) | GI50 (HCT-116): 18.7 µM (inactive) | GI50 (HOP-18): 24.7 µM (inactive) | GI50 (CCRF-CEM): 16.5 µM (inactive) | GI50 (TK-10): 34 µM (inactive) | GI50 (EKVX): 24.4 µM (inactive) | GI50 (OVCAR-3): 21.7 µM (inactive) | GI50 (SN12C): 18.4 µM (inactive) | GI50 (UACC-257): 15.5 µM (inactive) | GI50 (HCT-15): 16.9 µM | GI50 (RXF 393): 16.7 µM (inactive) | GI50 (M19-MEL): 22 µM (inactive) | GI50 (HOP-62): > 100 µM (inactive) | GI50 (SK-MEL-5): 17.3 µM (inactive)
